Experimental data as given in patent EP0499337A1, “Use of tetra:hydro-thieno-pyrido-indole derivatives for the treatment of skin disorders” (YAMANOUCHI EUROPE B.V., priority 1991, dated 1992).
Read-outs that look alike come from different tables or passages of the source.

Columns and labels:
[1] = test system: 50 kDa protein; assay: Phosphorylation of synaptosomal plasma membranes: CaM-dependent phosphorylation of the 50 kDa protein; assay type: biochemical; conditions: in the presence of exogenous CaM (3 units/assay); read-out: IC₅₀-value, CaM-dependent phosphorylation of the 50 kDa protein
Method: Subcellular fractionation and phosphorylation assay were performed according to Kristjansson et al., (1982). […] After a preincubation at 30°C for 5 min, the phosphorylation reaction was started by adding the ATP. The reaction was stopped after 15 sec. All compounds to be tested were present at the start of the preincubation. […] Phosphorylation of B-50 and the 50 kDa protein, which was only phosphorylated after addition of CaM, was measured in the presence of exogenous CaM (3 units/assay) and quantified.

[2] = test system: PKC; conditions: in-vitro tests; Hegemann et al. (1989); cited from earlier work
[3] = test system: HaCaT cells; assay: Proliferation of HaCaT cells (incorporation of [3H]-thymidine and [14C]-amino acids, total protein content of attached cells); assay type: cell-based; conditions: Homo sapiens, all parameters measured ([3H]-thymidine, [14C]-amino acids, total protein content), 48 h incubation with compound, read-out: IC₅₀ values, inhibition of proliferation
Description: HaCaT cells are spontaneously immortalized aneuploid human keratinocytes prepared according to J. Cell. Biol. (1988), 106: 761-771. They can be substituted, however, by SVK₁₄ cells [Taylor-Papadimitriou et al. (1982), J. Cell Differentiat. 11: 169-180] or freshly isolated human keratinocytes [Rheinwald and Green (1975), Cell 6: 331-344].
The HaCaT cells (or the other cells) were routinely grown in Dulbecco's modified essential medium (DMEM) supplemented with 1% antibiotic-antimycotic solution, 4 mM L-glutamine and 10% fetal calf serum in culture flasks (T 175; Falcon Labware, Oxuard, CA, USA). Proliferation tests were carried out with passages 90-95 (for HaCaT-cells) and passages 3-6 (for NHEK's) in 24 well plates (Greiner, Solingen, FRG) as described below. All incubations were performed at 37°C in a humidified atmosphere with 10% CO₂. […]
Proliferation of HaCaT cells was assayed by three different parameters: incorporation of [³H]-thymidine, incorporation of [¹⁴C]-amino acids and the increase of protein content of attached cells. […] Thereafter, the filters were treated with 0.5 ml PROTOSOL®-solution (NEN, Bad Homburg, FRG) at 60°C for 1 h and radioactivity was assessed by liquid scintillation counting. […]
For determination of total protein content, cells were washed twice with methanol. […] Concentration of protein was determined spectrophotometrically using bovine serum albumin as a standard. […]

[4] = test system: Normal human keratinocytes; assay: Cornified envelope formation (keratinocyte differentiation); assay type: cell-based; conditions: 4 h plus 48 h exposure, increasing concentrations
Method: Normal human keratinocytes were grown to confluence at low calcium concentration in the presence of 5% FCS, 1 µM isoproterenol and 10 ng EGF per ml. They were first exposed for 4 h to increasing concentrations of test compounds and subsequently reincubated for 48 h in medium containing normal calcium concentration and the same additives, test compounds and [³H]-leucine (1 µCi/ml). Thereafter, both spontaneous and ionophore-induced cornified envelope (CE) formation was determined [King et al. (1986) Exp. Cell. Res., 167: 252].

[5] = test system: human polymorphonuclear leukocytes (PMNL); assay: ROS generation from PMNL, lucigenin-amplified chemiluminescence; assay type: cell-based; conditions: for IC50: Homo sapiens, PMNL
Method: Human PMNL were isolated from fresh blood (anticoagulated with sodium citrate) by erythrocyte sedimentation with 1% dextran (Pharmacia, Uppsala, Sweden) centrifugation of the resulting supernatant, followed by hypoosmotic lysis to remove red blood cells. Washed cells were adjusted to 2 x 10⁶ cells/ml in PBS containing fetal calf serum (2%; v/v). Test compounds dissolved in DMSO were diluted with the assay buffer to a final DMSO concentration of 0.5% (v/v).
Then the test compounds (100 µl) were added with subsequent recording for another 16 min period. […] Results were expressed as percent of inhibition or stimulation of the controls (mean of two integrals) in a single experiment.

**Q.** With CCN1CCc2[nH]c3cc(F)c4scc(C)c4c3c2C1 [Tiflucarbine, 1-methyl-9-ethyl-4-fluoro-7,8,9,10-tetra:hydro-thieno-[3,2-e]-pyrido-[4,3-b]-indole lactate] as the compound, how does the IC50 [1] read?
**A.** < 1 µM

**Q.** What about the PKC activity [2] of the same compound?
**A.** significantly inhibit PKC activity

**Q.** And the IC50 [3]?
**A.** 10 to 17 µM

**Q.** And the “spontaneous CE formation” value [4]?
**A.** no effect

**Q.** What about the IC50 ([5]; 16 min, compound added at peak, 16 min after opsonized zymosan, IC₅₀-values, read-out: Peak CL) of the same compound?
**A.** 14 µM

**Q.** And the IC50 ([5]; 30 min preincubation, unstimulated, IC₅₀-values, read-out: Spontaneous CL)?
**A.** 7.2 µM

**Q.** And the IC50 ([5]; stimulation with opsonized zymosan after preincubation, IC₅₀-values, read-out: Induced CL)?
**A.** 7.4 µM

**Q.** What about the IC50 ([5]; unstimulated cells and cells stimulated with opsonized zymosan or PMA, read-out: IC₅₀ values, inhibition of ROS generation) of the same compound?
**A.** 7 µM

**Q.** What about the “inhibition of peak chemiluminescence to 50%, fold higher concentrations” value ([5]; both stimuli (opsonized zymosan, PMA), relative to the IC₅₀ of 7 µM) of the same compound?
**A.** 2-3 fold

**Q.** And the “induction of the release of reactive oxygen species” value ([5]; human PMNL, unstimulated)?
**A.** does not induce the release
